{"source": "patent US12195804B2", "about": "“Treatment of squamous cell carcinoma” (Board of Regents, The University of Texas System, priority 2018, dated 2025)", "key": {"HNSCC cell lines [1]": {"system": "HNSCC cell lines", "experiment": "Cell cycle analysis (BrdU/7-AAD flow cytometry)", "format": "cell-based, human", "details": "50 nM", "protocol": "FIGS. 16A-16C: Effects of PI3K/mTOR signaling inhibition on the survival of NOTCH1MUT and NOTCH1WT head and neck squamous cell carcinoma (HNSCC) cell lines in vitro. FIG. 16A. The Annexin V/propidium iodide assay was used to assess apoptosis in HNSCC cells that had the indicated NOTCH1 and PIK3CA mutations and were treated with 500 nM BAY806946. Values are the means {plus minus} standard deviations of three independent experiments. […], unpaired two-tailed Student t-test. FIG. 16B. NOTCH1MUT lines (red text) and NOTCH1WT lines (black text) were treated with increasing concentrations of BAY806946 for 3 hours, and then Western blotting was used to assess levels of p-AKT (S473). FIG. 16C. NOTCH1WT lines (black text), NOTCH1MUT lines (red text), and PIK3CAMUT lines (blue text) were treated with 50 nM GSK2126458 (GSK212) and then pulse-labeled with BrDU and counterstained with 7-AAD for flow cytometry.\nApoptosis and cell cycle assays. […] Data were acquired with a three-laser, 10-color Gallios flow cytometer (Beckman Coulter, Brea, CA) and analyzed using Kaluza software (Beckman Coulter, Brea, CA). […]"}, "HNSCC cell lines [2]": {"system": "HNSCC cell lines", "experiment": "Apoptosis assays (Annexin V/propidium iodide, BrdU TUNEL, cleaved PARP/caspase 3)", "format": "cell-based, human", "details": "50 nM", "protocol": "FIGS. 7A-7D: PI3K/mTOR signaling inhibition induces cell death in NOTCH1^MUT but not NOTCH1^WT head and neck squamous cell carcinoma (HNSCC) cell lines in vitro. FIG. 7A. Annexin V/propidium iodide or BrDU-terminal deoxynucleotidyl transferase (TdT) dUTP nick-end labeling (TUNEL) assays were used to measure apoptosis in HNSCC cells with the indicated NOTCH1 and PIK3CA mutations, which were treated with 50 nM GSK2126458 (GSK212) for 24 or 48 hours, respectively. Values are the means±standard deviations of three independent experiments. *p<0.05, unpaired two-tailed Student t-test. FIG. 7B. Western blotting of cleaved PARP (Cl-PARP) and cleaved caspase 3 (Cl-Caspase 3) levels in mutant and wild type cells after GSK212 treatment for 48 hours. FIG. 7C. NOTCH1^MUT and NOTCH1^WT HNSCC cells were plated sparsely and treated with GSK212 at the indicated concentrations for 48 hours. At 14-21 days after treatment, the cells were fixed and stained, images were captured using the GelCount Tumour Colony Counter, and colony numbers and the colorimetric intensity of the colonies were determined by measuring the optical density (OD) at 570 nm. Values are the means±standard deviations of three independent experiments. *p<0.001, unpaired two-tailed Student t-test. FIG. 7D. Three NOTCH1^WT lines (black text and bars) and three NOTCH1^MUT lines (red text and bars) were treated with increasing concentrations of GSK212 for 4 hours, and levels of PI3K/mTOR pathway proteins were measured by Western blot analysis.\nWestern blot analysis. Western blot analysis was performed as described previously (Ferrarotto et al., 2016). In brief, cells were lysed with ice-cold lysis buffer, and the lysates were centrifuged at 20,000×g for 10 minutes at 4° C. Cell samples containing equal amounts of protein were resolved using sodium dodecyl sulfate-polyacrylamide gel electrophoresis, transferred to nitrocellulose membranes, and immunoblotted with different primary antibodies. Protein expression was detected using a horseradish peroxidase-conjugated secondary antibody (Bio-Rad, Hercules, CA) and electrochemiluminescence reagent (Amersham Biosciences, Pittsburg, PA).\nApoptosis and cell cycle assays. To measure apoptosis, we performed terminal deoxynucleotidyl transferase dUTP nick end labeling (TUNEL) staining with an APO-BRDU Kit (BD Biosciences, San Jose, CA) and Annexin V/propidium iodide staining with an FITC Annexin V Apoptosis Detection Kit (BD Pharmingen, San Diego, CA) as described previously (Chandarlapaty et al., 2011). […] Data were acquired with a three-laser, 10-color Gallios flow cytometer (Beckman Coulter, Brea, CA) and analyzed using Kaluza software (Beckman Coulter, Brea, CA). […]"}}, "data": [{"compound": "COc1ncc(-c2ccc3nccc(-c4ccnnc4)c3c2)cc1NS(=O)(=O)c1ccc(F)cc1F", "note": "[GSK2126458]", "values": [{"measurement": "sub-G0 fraction", "setting": "HNSCC cell lines [1]", "value": "increased the sub-G0 fraction in only NOTCH1^MUT lines"}, {"measurement": "G1 arrest", "setting": "HNSCC cell lines [1]; all cell lines", "value": "induced G1 arrest in all cell lines"}, {"measurement": "apoptosis in PDK1-overexpressing versus parental lines", "setting": "HNSCC cell lines [2]; 24 or 48 hours, NOTCH1MUT cells overexpressing PDK1", "value": "decreased apoptosis"}, {"measurement": "apoptosis", "setting": "HNSCC cell lines [2]; 24 or 48 hours, NOTCH1MUT lines", "value": "induced significant apoptosis"}, {"measurement": "apoptosis", "setting": "HNSCC cell lines [2]; two NOTCH1WT/PIK3CAWT and three NOTCH1WT/PIK3CAMUT lines", "value": "no apoptosis was detected"}]}]}
